Measurements published in patent US20070249620A1, “Urea Derivative” (priority 2004, published 2007).

Experiments:
[1] = molecular target: T1, mouse DGAT1 (Mus musculus, UniProt Q9Z2A7); assay: DGAT1 inhibitory effect test (microsome fraction, [14C]-oleoyl-CoA, triglyceride radioactivity by TLC); type: biochemical; details: 0.5 h; concentration of the test compound 0.1 μg/ml; mouse DGAT1 microsomes, 23° C., 30 minutes; read-out: Inhibitory ratio
T1 construct: made in house; host or cells: insect cells (High Five, Sf9, Sf21, etc.), baculovirus expression system (Invitrogen)
T1 sequence (Q9Z2A7 1-498): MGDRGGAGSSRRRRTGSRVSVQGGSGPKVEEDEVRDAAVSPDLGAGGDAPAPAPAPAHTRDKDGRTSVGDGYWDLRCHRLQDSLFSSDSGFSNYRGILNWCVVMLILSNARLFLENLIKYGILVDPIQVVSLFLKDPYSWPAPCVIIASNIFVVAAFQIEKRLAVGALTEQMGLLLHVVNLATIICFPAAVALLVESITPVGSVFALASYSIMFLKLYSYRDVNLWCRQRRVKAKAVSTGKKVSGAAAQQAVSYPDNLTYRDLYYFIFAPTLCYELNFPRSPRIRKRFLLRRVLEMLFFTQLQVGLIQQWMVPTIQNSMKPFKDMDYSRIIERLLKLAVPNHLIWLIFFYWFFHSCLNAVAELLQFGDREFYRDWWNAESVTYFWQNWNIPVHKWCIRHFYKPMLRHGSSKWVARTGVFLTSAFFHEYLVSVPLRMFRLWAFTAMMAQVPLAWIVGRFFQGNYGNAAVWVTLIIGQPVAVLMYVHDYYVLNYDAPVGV
Outline: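 Inhibition was scored from radiolabelled triglyceride separated by TLC, relative to vehicle and net of a 0-min background. The reaction ran for 30 min at room temperature (23 °C) in Tris-HCl pH 8.0 with MgCl2, BSA and Triton X-100. Substrates were 30 μM [14C]-oleoyl-CoA and 0.5 mM dioleoylglycerol, with mouse DGAT1 microsomes from baculovirus-infected insect cells as enzyme.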

Structure (SMILES)	melting point [°C]	inhibition at 0.1 µg/mL [1] [%]
COc1ccc(F)cc1NC(=O)Nc1ccc(N2CCN(C(=O)Nc3ccc(OCCO)cc3C(F)(F)F)CC2)nc1 [Example 223, 4-{5-[3-(5-fluoro-2-methoxy-phenyl)-ureido]-pyridin-2-yl}-piperazine-1-carboxylic acid [4-(2-hydroxy-ethoxy)-2-trifluoromethyl-phenyl]-amide]	172 to 173	≥ 50
COc1ccc(C)cc1NC(=O)Nc1ccc2c(c1)CCN(C(=O)Nc1ccc(OCCO)cc1C(F)(F)F)C2 [Example 226, 6-[3-(2-methoxy-5-methyl-phenyl)-ureido]-3,4-dihydro-1H-isoquinoline-2-carboxylic acid [4-(2-hydroxy-ethoxy)-2-trifluoromethyl-phenyl]-amide]	122 to 124	≥ 50
O=C(Nc1ccc2c(c1)CCN(C(=O)Nc1ccc(OCCO)cc1C(F)(F)F)C2)Nc1ccccc1F [Example 227, 6-[3-(2-fluoro-phenyl)-ureido]-3,4-dihydro-1H-isoquinoline-2-carboxylic acid [4-(2-hydroxy-ethoxy)-2-trifluoromethyl-phenyl]-amide]	162 to 164	≥ 50
COc1ccc(C)cc1NC(=O)Nc1ccc(C2CCN(C(=O)Nc3c(C)cccc3Cl)CC2)cc1 [Example 228, 4-{4-[3-(2-methoxy-5-methyl-phenyl)-ureido]-phenyl}-piperidine-1-carboxylic acid (2-chloro-6-methyl-phenyl)-amide]	234 to 236	≥ 50
O=C(Nc1ccc(C2=CCN(C(=O)Nc3ccc(OCCO)cc3C(F)(F)F)CC2)cc1)Nc1ccccc1F [Example 229, 4-{4-[3-(2-fluoro-phenyl)-ureido]-phenyl}-3,6-dihydro-2H-pyridine-1-carboxylic acid [4-(2-hydroxy-ethoxy)-2-trifluoromethyl-phenyl]-amide]	110 to 112	≥ 50
COc1ccc(C)cc1NC(=O)Nc1ccc(C2=CCN(C(=O)Nc3ccc(OCCO)cc3C(F)(F)F)CC2)cc1 [Example 230, 4-{4-[3-(2-methoxy-5-methyl-phenyl)-ureido]-phenyl}-3,6-dihydro-2H-pyridine-1-carboxylic acid [4-(2-hydroxy-ethoxy)-2-trifluoromethyl-phenyl]-amide]	150 to 153	≥ 50
COc1ccc(C)cc1NC(=O)Nc1ccc(N2CCN(C(=O)Nc3cc(OCCO)ccc3Cl)CC2)cc1 [Example 231, 4-{4-[3-(2-methoxy-5-methyl-phenyl)-ureido]-phenyl}-piperazine-1-carboxylic acid [2-chloro-5-(2-hydroxy-ethoxy)-phenyl]-amide]	121 to 124	≥ 50
COc1ccccc1NC(=O)Nc1ccc(N2CCN(C(=O)Nc3cc(OCCO)ccc3Cl)CC2)cc1 [Example 232, 4-{4-[3-(2-methoxy-phenyl)-ureido]-phenyl}-piperazine-1-carboxylic acid [2-chloro-5-(2-hydroxy-ethoxy)-phenyl]-amide]	179 to 180	≥ 50
CCOc1cccc(NC(=O)Nc2ccc(N3CCN(C(=O)Nc4cc(OCCO)ccc4Cl)CC3)cc2)c1 [Example 233, 4-{4-[3-(3-ethoxy-phenyl)-ureido]-phenyl}-piperazine-1-carboxylic acid [2-chloro-5-(2-hydroxy-ethoxy)-phenyl]-amide]	196 to 197	≥ 50
COc1cc(NC(=O)Nc2ccc(N3CCN(C(=O)Nc4cc(OCCO)ccc4Cl)CC3)cc2)cc(OC)c1 [Example 234, 4-{4-[3-(3,5-dimethoxy-phenyl)-ureido]-phenyl}-piperazine-1-carboxylic acid [2-chloro-5-(2-hydroxy-ethoxy)-phenyl]-amide]	191 to 192	≥ 50
COc1ccccc1NC(=O)Nc1ccc(N2CCN(C(=O)Nc3cc(OCCO)ccc3Cl)CC2)nc1 [Example 235, 4-{5-[3-(2-methoxy-phenyl)-ureido]-pyridin-2-yl}-piperazine-1-carboxylic acid [2-chloro-5-(2-hydroxy-ethoxy)-phenyl]-amide]	139 to 141	≥ 50
CCOc1cccc(NC(=O)Nc2ccc(N3CCN(C(=O)Nc4cc(OCCO)ccc4Cl)CC3)nc2)c1 [Example 236, 4-{5-[3-(3-ethoxy-phenyl)-ureido]-pyridin-2-yl}-piperazine-1-carboxylic acid [2-chloro-5-(2-hydroxy-ethoxy)-phenyl]-amide]	140 to 143	≥ 50
COc1ccc(C)cc1NC(=O)Nc1ccc(N2CCN(C(=O)Nc3cc(OCCO)ccc3Cl)CC2)nc1 [Example 238, 4-{5-[3-(2-methoxy-5-methyl-phenyl)-ureido]-pyridin-2-yl}-piperazine-1-carboxylic acid [2-chloro-5-(2-hydroxy-ethoxy)-phenyl]-amide]	132 to 134	≥ 50
COc1ccc(C)cc1NC(=O)Nc1ccc(N2CCN(C(=O)Nc3ccc(OCCO)cc3C(F)(F)F)CC2)c(C)c1 [Example 239, 4-{4-[3-(2-methoxy-5-methyl-phenyl)-ureido]-2-methyl-phenyl}-piperazine-1-carboxylic acid [4-(2-hydroxy-ethoxy)-2-trifluoromethyl-phenyl]-amide]	225 to 228	≥ 50
COc1ccc(C)cc1NC(=O)Nc1ccc(N2CCN(C(=O)Nc3ccc(OCCO)cc3C(F)(F)F)CC2)c(C#N)c1 [Example 242, 4-{2-cyano-4-[3-(2-methoxy-5-methyl-phenyl)-ureido]-phenyl}-piperazine-1-carboxylic acid [4-(2-hydroxy-ethoxy)-2-trifluoromethyl-phenyl]-amide]	135 to 137	≥ 50

The remaining lines, values ahead:

melting point [°C]	inhibition at 0.1 µg/mL [1] [%]	Structure (SMILES)
130 to 132	≥ 50	CC(C)(C)c1csc(NC(=O)Nc2ccc(N3CCN(C(=O)Nc4ccc(OCCO)cc4C(F)(F)F)CC3)cc2)n1 [Example 224, 4-{4-[3-(4-tert-butyl-thiazol-2-yl)-ureido]-phenyl}-piperazine-1-carboxylic acid [4-(2-hydroxy-ethoxy)-2-trifluoromethyl-phenyl]-amide]
166 to 167	≥ 50	Cc1nc(NC(=O)Nc2ccc(N3CCN(C(=O)Nc4ccc(OCCO)cc4C(F)(F)F)CC3)cc2)sc1C [Example 225, 4-{4-[3-(4,5-dimethyl-thiazol-2-yl)-ureido]-phenyl}-piperazine-1-carboxylic acid [4-(2-hydroxy-ethoxy)-2-trifluoromethyl-phenyl]-amide]
128 to 129	≥ 50	Cc1nc(NC(=O)Nc2ccc(N3CCN(C(=O)Nc4cc(OCCO)ccc4Cl)CC3)nc2)sc1C [Example 237, 4-{5-(3-(4,5-dimethyl-thiazol-2-yl)-ureido)-pyridin-2-yl}-piperazine-1-carboxylic acid {2-chloro-5-(2-hydroxy-ethoxy)-phenyl}-amide]
112 to 114	≥ 50	O=C(Nc1ccc(N2CCN(C(=O)Nc3ccc(OCCO)cc3C(F)(F)F)CC2)cc1)Nc1ccccc1OC(F)(F)F [Example 240, 4-{4-[3-(2-trifluoromethoxy-phenyl)-ureido]-phenyl}-piperazine-1-carboxylic acid [4-(2-hydroxy-ethoxy)-2-trifluoromethyl-phenyl]-amide]
115 to 116	≥ 50	CSc1ccccc1NC(=O)Nc1ccc(N2CCN(C(=O)Nc3ccc(OCCO)cc3C(F)(F)F)CC2)cc1 [Example 241, 4-{4-[3-(2-methylsulfanyl-phenyl)-ureido]-phenyl}-piperazine-1-carboxylic acid [4-(2-hydroxy-ethoxy)-2-trifluoromethyl-phenyl]-amide]
212 to 214	≥ 50	O=C(Nc1ccc(N2CCN(C(=O)Nc3ccc(OCCO)cc3C(F)(F)F)CC2)cc1)Nc1ccc2c(c1)CCO2 [Example 243, 4-{4-[3-(2,3-dihydro-benzofuran-5-yl)-ureido]-phenyl}-piperazine-1-carboxylic acid [4-(2-hydroxy-ethoxy)-2-trifluoromethyl-phenyl]-amide]
127 to 129	≥ 50	O=C(Nc1ccc(N2CCN(C(=O)Nc3ccc(OCCO)cc3C(F)(F)F)CC2)cc1)Nc1cccc2c1OCCO2 [Example 244, 4-{4-[3-(2,3-dihydro-1,4-benzodioxin-5-yl)-ureido]-phenyl}-piperazine-1-carboxylic acid [4-(2-hydroxy-ethoxy)-2-trifluoromethyl-phenyl]-amide]
118 to 120	≥ 50	O=C(Nc1ccc(N2CCN(C(=O)Nc3ccc(OCCO)cc3C(F)(F)F)CC2)cc1)Nc1ccccc1OC(F)F [Example 245, 4-{4-[3-(2-difluoromethoxy-phenyl)-ureido]-phenyl}-piperazine-1-carboxylic acid [4-(2-hydroxy-ethoxy)-2-trifluoromethyl-phenyl]-amide]
